The results in this text go back to patent publication US10538487B2, “Sulfonylureas and related compounds and use of same” (priority 2015, dated 2020).

The target in test [1] is NLRP3 inflammasome (Homo sapiens, UniProt Q96P20). Description: Inhibition of IL-1β release, NLRP3 inflammasome activation assay in HMDM. It is filed as cell-based. Put shortly: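 Primary human monocyte-derived macrophages from CD14+ buffy-coat monocytes, seeded at 1×10^5/ml. Compound added in serum-free medium 30 min before NLRP3 stimulation (ATP, nigericin, LeuLeu-OMe or MSU). Cytokine in supernatants measured by ELISA or AlphaLISA; cell death by LDH release relative to full lysis.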
Chain of NLRP3 inflammasome (Homo sapiens, UniProt Q96P20) (Q96P20 whole entry): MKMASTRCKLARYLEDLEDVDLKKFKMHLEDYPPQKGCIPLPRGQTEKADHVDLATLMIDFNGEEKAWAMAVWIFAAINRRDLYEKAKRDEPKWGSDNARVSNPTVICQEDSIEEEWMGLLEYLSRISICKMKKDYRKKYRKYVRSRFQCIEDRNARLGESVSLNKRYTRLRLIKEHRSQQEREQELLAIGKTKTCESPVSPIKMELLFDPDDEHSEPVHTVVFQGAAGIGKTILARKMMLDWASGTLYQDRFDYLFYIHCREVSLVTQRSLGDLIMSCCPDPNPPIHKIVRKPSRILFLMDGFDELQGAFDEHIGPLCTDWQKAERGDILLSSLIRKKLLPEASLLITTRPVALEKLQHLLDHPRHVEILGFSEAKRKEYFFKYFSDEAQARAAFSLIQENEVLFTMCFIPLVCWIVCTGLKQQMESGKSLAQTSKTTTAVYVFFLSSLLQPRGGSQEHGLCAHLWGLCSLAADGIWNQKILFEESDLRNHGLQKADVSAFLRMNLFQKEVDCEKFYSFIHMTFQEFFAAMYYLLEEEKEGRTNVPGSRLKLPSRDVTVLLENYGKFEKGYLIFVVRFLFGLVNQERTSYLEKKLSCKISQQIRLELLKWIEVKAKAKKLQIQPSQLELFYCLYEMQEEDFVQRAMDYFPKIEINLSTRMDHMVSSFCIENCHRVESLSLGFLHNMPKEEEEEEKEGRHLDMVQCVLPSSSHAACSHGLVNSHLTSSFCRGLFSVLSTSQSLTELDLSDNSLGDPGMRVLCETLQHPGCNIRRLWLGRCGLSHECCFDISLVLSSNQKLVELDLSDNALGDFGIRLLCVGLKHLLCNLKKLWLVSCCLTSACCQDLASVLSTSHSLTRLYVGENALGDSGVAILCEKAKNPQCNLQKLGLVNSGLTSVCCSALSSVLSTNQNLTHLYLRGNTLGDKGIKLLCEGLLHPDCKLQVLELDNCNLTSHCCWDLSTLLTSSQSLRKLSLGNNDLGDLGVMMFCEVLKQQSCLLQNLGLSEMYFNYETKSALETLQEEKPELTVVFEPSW

The target in test [2] is NLRP3 inflammasome (Mus musculus, UniProt Q8R4B8). Description: Inhibition of IL-1β release, NLRP3 inflammasome activation assay in BMDM. It is filed as cell-based. Here is the method: The following assays can be used to determine inhibitory activity of test compounds on the NLRP3 inflammasome using common stimuli such as adenosine triphosphate, nigericin, LeuLeu-OMe or monosodium urate crystals (MSU).
Chain of NLRP3 inflammasome (Mus musculus, UniProt Q8R4B8) (Q8R4B8 whole entry): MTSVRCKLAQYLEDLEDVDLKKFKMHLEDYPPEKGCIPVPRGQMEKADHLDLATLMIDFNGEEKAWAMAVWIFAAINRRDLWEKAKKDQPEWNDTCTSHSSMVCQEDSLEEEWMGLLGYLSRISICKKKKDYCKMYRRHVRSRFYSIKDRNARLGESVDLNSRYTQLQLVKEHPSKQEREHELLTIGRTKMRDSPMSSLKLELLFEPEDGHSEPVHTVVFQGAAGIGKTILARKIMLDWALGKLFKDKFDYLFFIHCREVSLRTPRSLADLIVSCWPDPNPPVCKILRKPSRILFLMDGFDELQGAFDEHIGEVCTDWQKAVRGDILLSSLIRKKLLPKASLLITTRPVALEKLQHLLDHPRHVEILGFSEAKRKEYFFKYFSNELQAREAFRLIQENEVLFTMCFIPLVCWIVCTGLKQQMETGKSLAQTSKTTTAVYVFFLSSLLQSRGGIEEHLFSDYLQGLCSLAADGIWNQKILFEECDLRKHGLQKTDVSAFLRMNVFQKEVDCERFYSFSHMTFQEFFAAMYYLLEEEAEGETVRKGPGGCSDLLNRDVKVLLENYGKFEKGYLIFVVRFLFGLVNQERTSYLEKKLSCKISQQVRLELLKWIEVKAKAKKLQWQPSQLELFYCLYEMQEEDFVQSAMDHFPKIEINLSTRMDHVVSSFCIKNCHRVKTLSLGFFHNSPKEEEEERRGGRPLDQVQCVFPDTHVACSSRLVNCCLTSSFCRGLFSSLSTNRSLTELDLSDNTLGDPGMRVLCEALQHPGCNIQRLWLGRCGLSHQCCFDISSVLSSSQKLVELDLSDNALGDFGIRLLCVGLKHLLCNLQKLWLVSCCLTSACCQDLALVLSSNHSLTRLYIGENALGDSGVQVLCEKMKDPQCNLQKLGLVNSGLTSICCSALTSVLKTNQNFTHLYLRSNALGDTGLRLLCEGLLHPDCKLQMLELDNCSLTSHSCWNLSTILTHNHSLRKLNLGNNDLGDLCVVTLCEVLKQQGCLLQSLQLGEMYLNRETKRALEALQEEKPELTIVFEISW
Mouse bone marrow-derived macrophages (BMDM) were derived from bone marrow progenitors isolated from the femurs and tibias of C57BL/6 mice.
BMDM are seeded at 1×10^5/ml. The following day the overnight medium is replaced and cells are stimulated with Ultrapure lipopolysaccharide from Escherichia coli K12 strain (InvivoGen) for 3 h. Medium is removed and replaced with serum free medium (SFM) containing test compound 30 min prior to NLRP3 stimulation. […] ATP can be sourced from Sigma Aldrich, nigericin and MSU from Invivogen and LeuLeu-Ome from Chem-Impex International.
For ELISA and cell death assays cells are seeded in 96 well plates. Supernatants are removed and analysed using ELISA kits according to the manufacturer's instructions (DuoSet® R&D Systems, ReadySetGo!® eBioscience, BD OptEIA™, or Perkin Elmer AlphaLISA®). Cell death is assessed by measurement of LDH release relative to a 100% cell lysis control using the CytoTox96® non-radioactive cytotoxicity assay (Promega).

Where [3] appears, read: inhibition of IL-1β release, class symbols, read-out: Avg. IL-1β IC50 HMDM.
The mark [4] stands for this setting: inhibition of IL-1β release, class symbols, read-out: Avg. IL-1β IC50 Murine BMDM.
Setting [5] is: select compounds of the first aspect (Table 10), read-out: HMDM IC50 vs NLRP3.
Where [6] appears, read: select compounds of the first aspect (Table 10), read-out: BMDM IC50 vs NLRP3.
The mark [7] stands for this setting: commercial compounds (Table 9), read-out: HMDM IC50 vs NLRP3.
Where [8] appears, read: commercial compounds (Table 9), read-out: BMDM IC50 vs NLRP3.
[9] abbreviates: inhibition of IL-1β release, numeric bounds, read-out: Avg. IL-1β IC50 HMDM.
Where [10] appears, read: inhibition of IL-1β release, numeric bounds, read-out: Avg. IL-1β IC50 Murine BMDM.

Like-named read-outs stand apart in the source and are kept apart here.

As to `Nc1ccc(S(=O)(=O)NC(=O)Nc2c3c(cc4c2CCC4)CCC3)cc1` [4-Amino-N-((1,2,3,5,6,7-hexahydro-s-indacen-4-yl)carbamoyl)benzenesulfonamide], the IC50 at NLRP3 inflammasome [1] (setting [3]) was less than 1 µM; at NLRP3 inflammasome [2] (setting [4]), less than 0.1 µM.
Consider `O=C(CCCC[C@@H]1SC[C@@H]2NC(=O)N[C@@H]21)NCCCn1cc(CCC(=O)Nc2cccc(S(=O)(=O)NC(=O)Nc3c4c(cc5c3CCC5)CCC4)c2)nn1` [N-(3-(4-(3-((3-(N-((1,2,3,5,6,7-hexahydro-s-indacen-4-yl)carbamoyl)sulfamoyl)phenyl)amino)-3-oxopropyl)-1H-1,2,3-triazol-1-yl)propyl)-5-((3aS,4S,6aR)-2-oxohexahydro-1H-thieno[3,4-d]imidazol-4-yl)pentanamide], for which the IC50 at NLRP3 inflammasome [1] (setting [3]) and on NLRP3 inflammasome [2] (setting [4]) was less than 10 µM each time.
Turning to `O=C(Nc1c2c(cc3c1CCC3)CCC2)NS(=O)(=O)c1ccc2c(c1)CCC2` [drawing 367], the IC50 on NLRP3 inflammasome [1] (setting [5]) is 1.46 µM; on NLRP3 inflammasome [2] (setting [6]), 0.05 µM.
Regarding `CC(C)c1cc(Cl)cc(C(C)C)c1NC(=O)NS(=O)(=O)c1cc2ccccc2s1` [N-((4-chloro-2,6-diisopropylphenyl)carbamoyl)benzo[b]thiophene-2-sulfonamide], the IC50 at NLRP3 inflammasome [1] (setting [3]) is less than 0.1 µM; at NLRP3 inflammasome [2] (setting [4]), less than 1 µM.
On to `CC(=O)c1ccc(S(=O)(=O)NC(=O)NC2CCCCC2)cc1` [Acetohexamide, reference compound], for which the IC50 at NLRP3 inflammasome [1] (setting [7]) and on NLRP3 inflammasome [2] (setting [8]) was more than 200 µM each time.
Take `O=C(Nc1ccc(Cl)cc1)NS(=O)(=O)c1ccc2c(c1)CCC2` [N-((4-chlorophenyl)carbamoyl)-2,3-dihydro-1H-indene-5-sulfonamide]: the IC50 at NLRP3 inflammasome [1] (setting [9]) was more than 100 µM; at NLRP3 inflammasome [2] (setting [10]), more than 10 µM.
In the case of `O=C(Nc1c2c(cc3c1CCC3)CCC2)NS(=O)(=O)c1ccc(CCNc2ccc([N+](=O)[O-])c3nonc23)cc1` [N-((1,2,3,5,6,7-hexahydro-s-indacen-4-yl)carbamoyl)-4-(2-((7-nitrobenzo[c][1,2,5]oxadiazol-4-yl)amino)ethyl)benzenesulfonamide], the half-inhibitory concentration (IC50) on NLRP3 inflammasome [1] (setting [3]) and at NLRP3 inflammasome [2] (setting [4]) was less than 1 µM each time.
Regarding `NS(=O)(=O)c1cccc(S(=O)(=O)NC(=O)Nc2c3c(cc4c2CCC4)CCC3)c1` [N^1-(1,2,3,5,6,7-Hexahydros-indacen-4-ylcarbamoyl)benzene-1,3-disulfonamide], the IC50 at NLRP3 inflammasome [1] (setting [3]) and on NLRP3 inflammasome [2] (setting [4]) was less than 0.1 µM in each case.
With `CC(C)n1ccc(S(=O)(=O)NC(=O)Nc2c(C3CC3)cc(Cl)cc2C2CC2)n1` [N-((4-chloro-2,6-dicyclopropylphenyl)carbamoyl)-1-isopropyl-1H-pyrazole-3-sulfonamide], the IC50 at NLRP3 inflammasome [1] (setting [3]) and on NLRP3 inflammasome [2] (setting [4]) was less than 1 µM in each case.
As for `CCCCNC(=O)NS(=O)(=O)c1ccc(C)cc1` [Tolbutamide, reference compound], the IC50 at NLRP3 inflammasome [1] (setting [7]) and on NLRP3 inflammasome [2] (setting [8]) was more than 200 µM throughout.
On to `O=C(Nc1c2c(cc3c1CCC3)CCC2)NS(=O)(=O)c1ccc(Cl)cc1` [drawing 366], for which the 50% inhibitory concentration (IC50) was 0.3 µM at NLRP3 inflammasome [1] (setting [5]) and 0.03 µM on NLRP3 inflammasome [2] (setting [6]).
Regarding `Cc1cc(Cl)cc(C)c1NC(=O)NS(=O)(=O)c1ccn(C(C)C)n1` [N-((4-chloro-2,6-dimethylphenyl)carbamoyl)-1-isopropyl-1H-pyrazole-3-sulfonamide], the IC50 at NLRP3 inflammasome [1] (setting [3]) is less than 10 µM; on NLRP3 inflammasome [2] (setting [10]), more than 10 µM.
As for `COc1ccc2c(c1)C(=O)N(CCc1ccc(S(=O)(=O)NC(=O)Nc3c4c(cc5c3CCC5)CCC4)cc1)C(=O)C2(C)C` [drawing 361], the IC50 at NLRP3 inflammasome [1] (setting [5]) worked out at 2.3 µM; at NLRP3 inflammasome [2] (setting [6]) it was 0.26 µM.
`Cc1cc(C)nc(NC(=O)NS(=O)(=O)c2cc(C(C)(C)O)co2)n1` [N-((4,6-dimethylpyrimidin-2-yl)carbamoyl)-4-(2-hydroxypropan-2-yl)furan-2-sulfonamide]: the IC50 at NLRP3 inflammasome [1] (setting [9]) was more than 50 µM; at NLRP3 inflammasome [2] (setting [10]), more than 10 µM.
In the case of `CC(C)n1ccc(S(=O)(=O)NC(=O)Nc2nc(C(C)(C)C)cc(C(C)(C)C)n2)n1` [N-((4,6-di-tert-butylpyrimidin-2-yl)carbamoyl)-1-isopropyl-1H-pyrazole-3-sulfonamide], on NLRP3 inflammasome [2] (setting [10]), the IC50 is more than 10 µM.
Turning to `O=C(Nc1c2c(cc3c1CCC3)CCC2)NS(=O)(=O)c1nnc[nH]1` [N-((1,2,3,5,6,7-hexahydro-s-indacen-4-yl)carbamoyl)-4H-1,2,4-triazole-3-sulfonamide], on NLRP3 inflammasome [2] (setting [4]), the IC50 is less than 0.1 µM.
The same measure, in the same setting: next, `COc1ccc(OC)c(NC(=O)NS(=O)(=O)c2cc(C(C)(C)O)co2)c1` [N-((2,5-dimethoxyphenyl)carbamoyl)-4-(2-hydroxypropan-2-yl)furan-2-sulfonamide]: less than 10 µM.
Consider `CC(C)(O)c1coc(S(=O)(=O)NC(=O)Nc2c3c(cc4c2OCC4)OCC3)c1` [4-(2-hydroxypropan-2-yl)-N-((2,3,6,7-tetrahydrobenzo[1,2-b:4,5-b′]difuran-4-yl)carbamoyl)furan-2-sulfonamide], for which the half-inhibitory concentration (IC50) at NLRP3 inflammasome [2] (setting [4]) was less than 1 µM.
The same measure, in the same setting: with `CC(C)c1cc(Cl)cc(C(C)C)c1NC(=O)NS(=O)(=O)c1cccc2nccnc12` [N-((4-chloro-2,6-diisopropylphenyl)carbamoyl)quinoxaline-5-sulfonamide] the figure was less than 0.1 µM; with `CC(C)(O)c1coc(S(=O)(=O)NC(=O)Nc2c3c(cc4c2OCC4)CCC3)c1` [4-(2-hydroxypropan-2-yl)-N-((3,5,6,7-tetrahydro-2H-indeno[5,6-b]furan-8-yl)carbamoyl)furan-2-sulfonamide], less than 0.1 µM.
On to `Cc1cc(C(=O)NCCc2ccc(S(N)(=O)=O)cc2)no1` [Glisoxepide Precursor, reference compound], for which the IC50 at NLRP3 inflammasome [2] (setting [8]) is more than 10000 µM.
As for `CC(C)c1cc(Cl)cc(C(C)C)c1NC(=O)NS(=O)(=O)c1ccc2cc(Cl)ccc2c1` [6-chloro-N-((4-chloro-2,6-diisopropylphenyl)carbamoyl)naphthalene-2-sulfonamide], the IC50 on NLRP3 inflammasome [2] (setting [4]) was less than 0.1 µM.
With `O=C(Nc1c2c(cc3c1CCC3)CCC2)NS(=O)(=O)c1cn2c(n1)CCC2` [N-((1,2,3,5,6,7-hexahydro-s-indacen-4-yl)carbamoyl)-6,7-dihydro-5H-pyrrolo[1,2-a]imidazole-2-sulfonamide], the 50% inhibitory concentration (IC50) at NLRP3 inflammasome [2] (setting [4]) is less than 1 µM.
As for `CC(C)c1cc(Cl)cc(C(C)C)c1NC(=O)NS(=O)(=O)c1cnc2ccsc2c1` [N-((4-chloro-2,6-diisopropylphenyl)carbamoyl)thieno[3,2-b]pyridine-6-sulfonamide], the IC50 on NLRP3 inflammasome [2] (setting [4]) is less than 1 µM.
As to `CCc1noc2ncc(S(=O)(=O)NC(=O)Nc3c(C(C)C)cc(Cl)cc3C(C)C)cc12` [N-((4-chloro-2,6-diisopropylphenyl)carbamoyl)-3-ethylisoxazolo[5,4-b]pyridine-5-sulfonamide], the IC50 on NLRP3 inflammasome [2] (setting [4]) is less than 10 µM.
On to `CC(C)(O)c1coc(S(=O)(=O)NC(=O)Nc2c(C3CC3)cc(Cl)c3c2CCC3)c1` [N-((7-chloro-5-cyclopropyl-2,3-dihydro-1H-inden-4-yl)carbamoyl)-4-(2-hydroxypropan-2-yl)furan-2-sulfonamide], for which the 50% inhibitory concentration (IC50) on NLRP3 inflammasome [2] (setting [4]) was less than 0.1 µM.
In the case of `CCOC(=O)c1coc(S(=O)(=O)NC(=O)Nc2c3c(cc4c2CCC4)CCC3)c1` [ethyl 5-(N-((1,2,3,5,6,7-hexahydro-s-indacen-4-yl)carbamoyl)sulfamoyl)furan-3-carboxylate], the IC50 at NLRP3 inflammasome [2] (setting [4]) was less than 1 µM.
On to `O=C(Nc1c2c(cc3c1CCC3)CCC2)NS(=O)(=O)c1cc(C(=O)O)co1` [5-(N-((1,2,3,5,6,7-hexahydro-s-indacen-4-yl)carbamoyl)sulfamoyl)furan-3-carboxylic acid], for which the concentration for half-maximal inhibition (IC50) on NLRP3 inflammasome [2] (setting [4]) is less than 10 µM.
Consider `Cc1cc(C)nc(NC(=O)NS(=O)(=O)c2ccn(C(C)C)n2)n1` [N-((4,6-dimethylpyrimidin-2-yl)carbamoyl)-1-isopropyl-1H-pyrazole-3-sulfonamide], for which the IC50 on NLRP3 inflammasome [2] (setting [10]) is more than 10 µM.
The same measure, in the same setting: with `COc1cc(Cl)cc(C(F)(F)F)c1NC(=O)NS(=O)(=O)c1ccn(C(C)C)n1` [N-((4-chloro-2-methoxy-6-(trifluoromethyl)phenyl)carbamoyl)-1-isopropyl-1H-pyrazole-3-sulfonamide] the figure was more than 10 µM.
In the case of `CC(C)(O)c1coc(S(=O)(=O)NC(=O)Nc2c3c(cc4c2CCO4)CCC3)c1` [4-(2-hydroxypropan-2-yl)-N-((3,5,6,7-tetrahydro-2H-indeno[5,6-b]furan-4-yl)carbamoyl)furan-2-sulfonamide], the half-maximal inhibitory concentration (IC50) on NLRP3 inflammasome [2] (setting [4]) was less than 0.1 µM.
Consider `CC(C)(O)c1coc(S(=O)(=O)NC(=O)Nc2c3c(c(Br)c4c2OCC4)CCC3)c1` [N-((4-bromo-3,5,6,7-tetrahydro-2H-indeno[5,6-b]furan-8-yl)carbamoyl)-4-(2-hydroxypropan-2-yl)furan-2-sulfonamide], for which the 50% inhibitory concentration (IC50) on NLRP3 inflammasome [2] (setting [4]) is less than 0.1 µM.
In the case of `COc1ccc2cc(S(=O)(=O)NC(=O)Nc3c(C(C)C)cc(Cl)cc3C(C)C)ccc2c1` [N-((4-chloro-2,6-diisopropylphenyl)carbamoyl)-6-methoxynaphthalene-2-sulfonamide], the half-inhibitory concentration (IC50) on NLRP3 inflammasome [2] (setting [4]) was less than 0.1 µM.
